In patent US10000488B2, “Heterocyclic compound” (TAKEDA PHARMACEUTICAL COMPANY LIMITED, priority 2014, dated 2018):
Structures can show the parent of a compound that is named as a salt.

Columns and labels:
[1] = target: T1, RORγt (Homo sapiens, UniProt P51449); assay: RORγt binding test using fluorescent-labeled synthetic ligand (TR-FRET); details: test compound 1 μM; read-out: binding inhibitory rate (%) of fluorescent-labeled synthetic ligand to RORγt at test compound 1 μM
T1 sequence (P51449 1-497 isoform P51449-2): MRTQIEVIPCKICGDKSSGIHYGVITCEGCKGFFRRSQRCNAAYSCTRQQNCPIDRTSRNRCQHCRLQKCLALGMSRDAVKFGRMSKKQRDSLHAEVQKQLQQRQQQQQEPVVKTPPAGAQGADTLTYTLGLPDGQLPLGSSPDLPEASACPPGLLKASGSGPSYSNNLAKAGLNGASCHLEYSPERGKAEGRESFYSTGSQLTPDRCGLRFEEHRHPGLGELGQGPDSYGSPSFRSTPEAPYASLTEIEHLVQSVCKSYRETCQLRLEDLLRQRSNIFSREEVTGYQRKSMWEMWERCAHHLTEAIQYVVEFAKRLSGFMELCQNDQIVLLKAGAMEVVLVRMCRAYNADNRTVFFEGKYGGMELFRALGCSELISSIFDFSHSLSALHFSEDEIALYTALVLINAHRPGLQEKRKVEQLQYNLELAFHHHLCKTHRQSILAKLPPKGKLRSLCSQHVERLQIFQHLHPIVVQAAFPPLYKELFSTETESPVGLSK
In short: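 Compound displacement of a fluorescent-labeled synthetic ligand from His-tagged RORγt was read by TR-FRET with a terbium anti-His antibody. Buffer was 20 mM Tris-HCl pH 7.5, 100 mM NaCl, 1 mM DTT and 0.1% BSA, with stocks of 240 nM protein, 12 μM ligand and 8 nM antibody (pre-mix, not final). Incubations were 20 min plus 20 min at room temperature, with excitation at 320 nm, emission at 520 nm and a 100 μs delay.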

[2] = target: T1, RORγt; assay: Cofactor recruitment test (Alpha Screen, biotinylated SRC-1 peptide); type: biochemical; details: read-out: signal value inhibitory rate (%) at test compound 1 μM
Protocol: Cofactor Recruitment Test
Cofactor recruitment test was performed by Alpha Screen (Histidine Detection Kit, PerkinElmer) method. First, a test compound was diluted with an assay buffer (50 mM Tris-HCl (pH 7.5), 50 mM KCl, 1 mM DTT, 0.1% BSA) and added to a 384 well plate by 5 μL. […] The mixture was stood in a dark place for 1 hr, and the signal value was measured by Envision (PerkinElmer).

[3] = target: T1, RORγt; assay: Jurkat reporter test (human IL-17 ROR response element luciferase reporter, RORγt vector); type: cell-based; details: test compound 3 μM; Jurkat cells; read-out: luminescence level inhibitory rate (%) at test compound 3 μM
In short: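 Jurkat cells were electroporated (1350 V, 10 ms, 3 pulses) with the reporter constructs and plated in RPMI with 10% lipid-reduced FCS, 10 mM HEPES pH 7.5 and 5 μM lovastatin. After overnight culture with compound, luciferase activity was measured by luminescence following a 10 min room-temperature incubation with Bright-Glo.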

Compound	inhibition at 1 µM [1] [%]	inhibition at 1 µM [2] [%]	inhibition at 3 µM [3] [%]
Cc1nc2cc(C(=O)N[C@@H]3CCCN(C(=O)Nc4cc5c(=O)n(CC6CC6)c(=O)n(C(C)C)c5cc4F)C3)ccc2o1 [Example 296, N-((3R)-1-((3-(cyclopropylmethyl)-7-fluoro-1-isopropyl-2,4-dioxo-1,2,3,4-tetrahydroquinazolin-6-yl)carbamoyl)piperidin-3-yl)-2-methyl-1,3-benzoxazole-5-carboxamide]	102	108	102
CC(C)n1c(=O)n(C[C@@H]2CCCO2)c(=O)c2cc(NC(=O)N3CCO[C@@H](C(=O)Nc4cc(Cl)c(C#N)cc4F)C3)c(F)cc21 [Example 358, (2R)—N^2-(5-chloro-4-cyano-2-fluorophenyl)-N^4-(7-fluoro-1-isopropyl-2,4-dioxo-3-((2S)-tetrahydrofuran-2-ylmethyl)-1,2,3,4-tetrahydroquinazolin-6-yl)morpholine-2,4-dicarboxamide]	101	107	106
CC(C)n1c(=O)n(CC2CC(F)(F)C2)c(=O)c2cc(NC(=O)N3CCO[C@@H](C(=O)Nc4ccc(C#N)c(Cl)c4)C3)c(F)cc21 [Example 350, (2R)—N^2-(3-chloro-4-cyanophenyl)-N^4-(3-((3,3-difluorocyclobutyl)methyl)-7-fluoro-1-isopropyl-2,4-dioxo-1,2,3,4-tetrahydroquinazolin-6-yl)morpholine-2,4-dicarboxamide]	102	108	107
CC(C)n1c(=O)n(CC2CC2)c(=O)c2cc(NC(=O)N3CCNC(C(=O)Nc4ccc(C#N)c(F)c4)C3)ccc21 (stereo not drawn) [Example 92, N^3-(4-cyano-3-fluorophenyl)-N^1-(3-(cyclopropylmethyl)-1-isopropyl-2,4-dioxo-1,2,3,4-tetrahydroquinazolin-6-yl)piperazine-1,3-dicarboxamide hydrochloride]	102	103	103
CC(C)n1c(=O)n(CC2CC2)c(=O)c2cc(NC(=O)N3CCO[C@@H](C(=O)Nc4cnc(C#N)c(Cl)c4)C3)ccc21 [Example 122, (2R)-N^2-(5-chloro-6-cyanopyridin-3-yl)-N^4-(3-(cyclopropylmethyl)-1-isopropyl-2,4-dioxo-1,2,3,4-tetrahydroquinazolin-6-yl)morpholine-2,4-dicarboxamide]	101	112	103
CC(C)n1c(=O)n(CC2CC2)c(=O)c2cc(NC(=O)N3CCC[C@@H](NC(=O)c4ccc(CNC(=O)OC(C)(C)C)cc4)C3)c(F)cc21 [Example 319, tert-Butyl (4-(((3R)-1-((3-(cyclopropylmethyl)-7-fluoro-1-isopropyl-2,4-dioxo-1,2,3,4-tetrahydroquinazolin-6-yl)carbamoyl)piperidin-3-yl)carbamoyl)benzyl)carbamate]	101	95	103
COC(=O)c1cccc(C(=O)NC2CCCN(C(=O)Nc3ccc4c(c3)c(=O)n(CC3CC3)c(=O)n4C(C)C)C2)c1 (stereo not drawn) [Example 113, methyl 3-((1-((3-(cyclopropylmethyl)-1-isopropyl-2,4-dioxo-1,2,3,4-tetrahydroquinazolin-6-yl)carbamoyl)piperidin-3-yl)carbamoyl)benzoate]	102	109	102
COc1ccc(C(=O)N[C@@H]2CCCN(C(=O)Nc3cc4c(=O)n(CC5CC5)c(=O)n(C(C)C)c4cc3F)C2)c(F)c1 [Example 291, (3R)-N-(3-(cyclopropylmethyl)-7-fluoro-1-isopropyl-2,4-dioxo-1,2,3,4-tetrahydroquinazolin-6-yl)-3-((2-fluoro-4-methoxybenzoyl)amino)piperidine-1-carboxamide]	102	107	101
CC(C)n1c(=O)n(CC2CC2)c(=O)c2cc(NC(=O)N3CCOC(C(=O)Nc4cc(F)c(C#N)cc4F)C3)ccc21 (stereo not drawn) [Example 135, N^2-(4-cyano-2,5-difluorophenyl)-N^4-(3-(cyclopropylmethyl)-1-isopropyl-2,4-dioxo-1,2,3,4-tetrahydroquinazolin-6-yl)morpholine-2,4-dicarboxamide]	102	113	99
CC(C)n1c(=O)n(CC2CC2)c(=O)c2cc(NC(=O)N3CCC[C@@H](N4Cc5ccc(C#N)cc5C4=O)C3)c(F)cc21 [Example 323, (3R)-3-(6-cyano-1-oxo-1,3-dihydro-2H-isoindol-2-yl)-N-(3-(cyclopropylmethyl)-7-fluoro-1-isopropyl-2,4-dioxo-1,2,3,4-tetrahydroquinazolin-6-yl)piperidine-1-carboxamide]	102	108	103
CC(C)n1c(=O)n(CC2CC2)c(=O)c2cc(NC(=O)N3CCC[C@@H](NC(=O)c4ccc(Cl)cc4)C3)ccc21 [Example 247, (3R)-3-((4-chlorobenzoyl)amino)-N-(3-(cyclopropylmethyl)-1-isopropyl-2,4-dioxo-1,2,3,4-tetrahydroquinazolin-6-yl)piperidine-1-carboxamide]	102	107	103
CC(C)n1c(=O)n(CC2CCCO2)c(=O)c2cc(NC(=O)N3CCO[C@@H](C(=O)Nc4ccc(C#N)c(Cl)c4)C3)c(F)cc21 (stereo partly drawn) [Example 333, (2R)—N^2-(3-chloro-4-cyanophenyl)-N^4-(7-fluoro-1-isopropyl-2,4-dioxo-3-(tetrahydrofuran-2-ylmethyl)-1,2,3,4-tetrahydroquinazolin-6-yl)morpholine-2,4-dicarboxamide]	101	107	106
CC(C)n1c(=O)n(CC2CC2)c(=O)c2cc(NC(=O)N3CCC[C@@H](NC(=O)c4ccc5c(c4)CCN(C(=O)OC(C)(C)C)C5)C3)c(F)cc21 [Example 340, tert-butyl 6-(((3R)-1-((3-(cyclopropylmethyl)-7-fluoro-1-isopropyl-2,4-dioxo-1,2,3,4-tetrahydroquinazolin-6-yl)carbamoyl)piperidin-3-yl)carbamoyl)-3,4-dihydroisoquinoline-2 (1H)-carboxylate]	98	92	107
CC(C)n1c(=O)n(CC2CC2(F)F)c(=O)c2cc(NC(=O)N3CCCC(n4cnc5cc(C#N)ccc5c4=O)C3)c(F)cc21 (mixture of isomers) [Example 360, (3R)-3-(7-cyano-4-oxoquinazoline-3(4H)-yl)-N-(3-((2,2-difluorocyclopropyl)methyl)-7-fluoro-1-isopropyl-2,4-dioxo-1,2,3,4-tetrahydroquinazolin-6-yl)piperidine-1-carboxamide (mixture of two stereoisomers)]	101	105	107
CC(C)n1c(=O)n(CC2CC2)c(=O)c2cc(NC(=O)N3CCO[C@@H](C(=O)Nc4ccc(C#N)c(F)c4)C3)c(F)cc21 [Example 172, (2R)-N^2-(4-cyano-3-fluorophenyl)-N^4-(3-(cyclopropylmethyl)-7-fluoro-1-isopropyl-2,4-dioxo-1,2,3,4-tetrahydroquinazolin-6-yl)morpholine-2,4-dicarboxamide]	102	111	105
CC(C)n1c(=O)n(CC2CC2(F)F)c(=O)c2cc(NC(=O)N3CCCC(n4cnc5cc(C#N)ccc5c4=O)C3)c(F)cc21 (single isomer, unassigned) [Example 367, (3R)-3-(7-cyano-4-oxoquinazoline-3(4H)-yl)-N-(3-(((1R or 1S)-2,2-difluorocyclopropyl)methyl)-7-fluoro-1-isopropyl-2,4-dioxo-1,2,3,4-tetrahydroquinazolin-6-yl)piperidine-1-carboxamide (one stereoisomer, quinazolinedione: derived from tR1)]	102	105	110
